Values joined by “and” are separate entries in the source; they are usually repeats but may differ in a detail not shown here. Equal values may be shown once.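 Test compounds were applied to cells in 96-well plates for 48 hours at 5 doses. GI50 is the concentration that inhibits growth by half. TGI: concentration producing complete growth inhibition.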
Assays:
Assay in all cases: inhibition of tumour cell growth, NCI panel, 48 h
SK-MEL-5 melanoma = test system: SK-MEL-5 melanoma
HT29 colon = test system: HT29 colon
KM12 colon = test system: KM12 colon
HCT-116 colon = test system: HCT-116 colon
LOX IMVI melanoma = test system: LOX IMVI melanoma
OVCAR-3 ovarian = test system: OVCAR-3 ovarian
SK-MEL-28 melanoma = test system: SK-MEL-28 melanoma
M14 melanoma = test system: M14 melanoma
UO-31 renal = test system: UO-31 renal
NCI-H23 lung = test system: NCI-H23 lung

SMILES	GI50 (SK-MEL-5 melanoma) [µM]	TGI (SK-MEL-5 melanoma)	GI50 (HT29 colon) [µM]	TGI (HT29 colon)	GI50 (KM12 colon) [µM]	TGI (KM12 colon) [µM]	GI50 (HCT-116 colon) [µM]	TGI (HCT-116 colon) [µM]	GI50 (LOX IMVI melanoma) [µM]	TGI (LOX IMVI melanoma)	GI50 (OVCAR-3 ovarian) [µM]	TGI (OVCAR-3 ovarian) [µM]	GI50 (SK-MEL-28 melanoma) [µM]	TGI (SK-MEL-28 melanoma)	GI50 (M14 melanoma) [µM]	TGI (M14 melanoma)	GI50 (UO-31 renal) [µM]	TGI (UO-31 renal) [µM]	GI50 (NCI-H23 lung) [µM]	TGI (NCI-H23 lung)
N#CC(C#N)=C1CCOc2ccc(F)cc21	33.2	> 100 µM	64.2	> 100 µM	49.7	> 100	8.86	21	11.7	23.9 µM	11.9	24.2	> 100	> 100 µM	19.5	45.9 µM	56.3	> 100	14.8	28.7 µM
CN(C)CCC(CCN(C)C)=NO		> 100 µM		> 100 µM		> 100		> 100				> 100		> 100 µM		> 100 µM		> 100		> 100 µM
CCOC(=O)C1=C(C)NC2=C(C(=O)N(c3ccccc3)C2c2ccccc2)C1c1ccccc1 (stereo not drawn)		28.6 µM		37.2 µM		33.7		31.4		34.4 µM		25.4		34.8 µM		32.1 µM		39.1		33.7 µM
C=CC(=O)N1C[C@@H]2CCOc3c(Cl)c(-c4c(O)cccc4F)c(F)c4ncnc(c34)N2C[C@H]1C	13.1	25.9 µM	18.6	52.5 µM	14.7	36.1	11.2	24.5	12	24.4 µM	6.11	18.5	13.5	27.1 µM	12.5	27.7 µM	12.3	25.3	0.0328	13.1 µM
CC1=C(C)C(=O)O[C@@H]([C@](C)(O)[C@]2(O)CC[C@@]3(O)[C@@H]4C[C@H](O)[C@]5(O)[C@@H](O)C=CC(=O)[C@]5(C)[C@H]4CC[C@]23C)C1		> 100 µM		> 100 µM		> 100		> 100		> 100 µM		> 100		> 100 µM		> 100 µM		> 100		> 100 µM
C#Cc1cccc(Nc2ncnc3ccc(OCCCCNCCS(C)(=O)=O)cc23)c1	4.26	8.63 µM	5.44	12.5 µM	9.74	> 25	6.81	> 18.7	4.78	11.1 µM	6.5	> 23.6	4.58	8.56 µM	5.11	9.66 µM	3.31	> 15.4	16.7	> 25 µM
COc1cc(N2C(=O)[C@H](c3ccccc3)C2c2ccc(SC)cc2)cc(OC)c1OC (stereo partly drawn)	0.0266	0.0821 µM	0.0324	1.76 µM	0.0352	> 100	0.0317	1.17	0.0352	> 100 µM	0.0265	0.0667					0.738	> 100	0.0502	> 100 µM
COc1cc(CC2c3cc(OC)c(OC)cc3CCN2C)ccc1O (stereo not drawn)		> 100 µM		> 100 µM		> 100		> 100				> 100		> 100 µM		> 100 µM		> 100		> 100 µM
O=C(Cc1nc2ccccc2o1)C(=O)Nc1cccc(Cl)c1				> 100 µM		> 100		> 100				> 100		> 100 µM		> 100 µM		> 100		> 100 µM
O=C(CCc1ccccc1)NS(=O)(=O)c1ccccc1				> 100 µM		> 100		> 100		> 100 µM		> 100		> 100 µM		> 100 µM		> 100		> 100 µM
COC(=O)c1ccc(/C=C(\c2ccc([N+](=O)[O-])o2)S(=O)(=O)c2ccc(NC(C)=O)cc2)o1		13.5 µM		5.76 µM		27.8		8.39				19.7		17.6 µM		15.4 µM		18.2		28.3 µM
C=C1C(=O)O[C@H]2[C@H](OC(C)=O)[C@@H](C)CCCC3(C)OC3CCC3(CO3)[C@H](O)C[C@@H]12 (stereo partly drawn)	11.9	24.9 µM	3.42	> 100 µM	13.6	28.5	3.7	13.1	12.6	25.2 µM	3.62	18.1	8.36	41.6 µM	11.1	23.6 µM	14.3	45		
CC1(C)N=C(N)N=C(N)N1c1ccc(OCCCNC(=O)Nc2cccc(S(=O)(=O)F)c2)c(Cl)c1	0.715	> 100 µM			4.53	> 100	0.636	> 100	2.66	> 100 µM	8.12	> 100	8.79	> 100 µM	3.26	> 100 µM	> 100	> 100	3.65	> 100 µM
COc1ccc(C(=O)c2c3cc(OC)c(OC)c(OC)c3cc[n+]2C)cc1		35.1 µM		> 100 µM		> 100		> 100						> 100 µM		> 100 µM		> 100		66.5 µM
NS(=O)(=O)c1ccc(NC(=O)Cc2nc3ccccc3s2)cc1		34.5 µM		35.4 µM		30.8		31				30.4		32 µM		29.4 µM		62.6		29.5 µM
O=c1[nH]c(=O)n(C2CC(O)C(CO)O2)cc1C(F)(C(F)(F)F)C(F)(F)F (stereo not drawn)		> 100 µM		> 100 µM		> 100				> 100 µM		> 100		> 100 µM		> 100 µM		> 100		> 100 µM
O=C1C(=C([O-])c2ccccc2)C(=O)c2ccccc21.O=C1C(=C([O-])c2ccccc2)C(=O)c2ccccc21.[Mn+2]	16.1	> 100 µM	43.2	> 100 µM	72.9	> 100			> 100	> 100 µM	40.5	> 100	93.8	> 100 µM	70.4	> 100 µM	43.9	> 100		
COc1cc(/C=C/c2cc(/C=C/c3ccc(O)c(OC)c3)n(C(=O)Nc3ccccc3Cl)n2)ccc1O	0.299	1.22 µM	0.323	1.36 µM	0.326	1.5			0.193	1.39 µM	0.45	3.68	0.519	4.11 µM	0.283	1.19 µM	0.159	1.17	0.33	2.46 µM

SMILES	GI50 (SK-MEL-5 melanoma) [µM]	TGI (SK-MEL-5 melanoma)	GI50 (HT29 colon) [µM]	TGI (HT29 colon)	GI50 (KM12 colon) [µM]	TGI (KM12 colon) [µM]	GI50 (HCT-116 colon) [µM]	TGI (HCT-116 colon) [µM]	GI50 (LOX IMVI melanoma) [µM]	TGI (LOX IMVI melanoma)	GI50 (OVCAR-3 ovarian) [µM]	TGI (OVCAR-3 ovarian) [µM]	GI50 (SK-MEL-28 melanoma) [µM]	TGI (SK-MEL-28 melanoma)	GI50 (M14 melanoma) [µM]	TGI (M14 melanoma)	GI50 (UO-31 renal) [µM]	TGI (UO-31 renal) [µM]	GI50 (NCI-H23 lung) [µM]	TGI (NCI-H23 lung)
C=CC(=O)NC(N)=NC#N		301 µM		372 µM				329	129	273 µM		310		261 µM		292 µM		333		344 µM
COC(=O)[C@@]1(C)C(=O)CC[C@@H]1C=O		> 100 µM		> 100 µM		> 100		> 100		> 100 µM		> 100				> 100 µM		> 100		> 100 µM
C#CC(=O)Nc1cccc2c1cc(C)n2-c1nc2c(c(NCc3ccccc3)n1)CCCC2	0.0985	0.259 µM	0.0543	0.121 µM	0.213	0.546	0.174	0.415	< 0.0132	< 0.0184 µM			1.22	2.79 µM	0.303	1.13 µM	0.0466	0.124		
O=C(O)c1ccc(C(O)(c2ccccc2)c2ccccc2)cc1		> 100 µM				> 100		> 100		> 100 µM		> 100		> 100 µM		> 100 µM		> 100		> 100 µM
Cc1cc(N2CCCCC2)nc(NC2CCCC(Nc3ccnc4cc(Cl)ccc34)C2)n1 (stereo not drawn)	1.64	3 µM			1.79	3.52	1.02	2.21			1.63	3.42	1.8	3.39 µM	1.66	3.29 µM	1.2	2.48		
COc1ccc(C2ON(c3ccccc3)CC=C2C)cc1 (stereo not drawn)				> 100 µM		> 100		> 100		> 100 µM		> 100		> 100 µM		> 100 µM		> 100		> 100 µM
Cc1ccc2cccc(OC(=O)Nc3cccc(C(F)(F)F)c3)c2n1	7.41	20.1 µM	3.45	12 µM	3.19	10.9	3.27	11.1			3.35	9.61	4.34	16.3 µM	4.06	16.2 µM	2.4	8.99	2.78	10 µM
CCOC(=O)C(CCC(N)=O)(CCC(=O)OC)C(=O)OCC				> 100 µM		> 100		> 100		> 100 µM		> 100		> 100 µM		> 100 µM		> 100		> 100 µM
CCn1c2ccccc2c(=O)c2c(OC)ccc(OC)c21				> 100 µM		> 100		> 100		> 100 µM		> 100				> 100 µM		> 89.9		> 100 µM
C[C@@H](NS(=O)(=O)c1ccc(NC(=O)c2ccccc2)cc1)C(=O)O		> 100 µM		> 100 µM		> 100				> 100 µM		> 100		> 100 µM		> 100 µM		> 100		> 100 µM
O=C(O)c1cc(=O)cc(C(=O)O)o1	> 100	> 100 µM	> 100	> 100 µM	> 100	> 100	> 100	> 100	> 100	> 100 µM	> 100	> 100	> 100	> 100 µM			> 100	> 100	> 100	> 100 µM
Cc1[nH]c2ccccc2c1CC/C(=N\Nc1ccccc1)c1ccccc1		> 100 µM		> 100 µM		> 100		> 100				> 100		> 100 µM		> 100 µM		> 100		> 100 µM
CC1=NN(C(=O)Nc2ccc(Cl)cc2)C(=O)C2CCC(=O)N12 (stereo not drawn)		> 100 µM				> 100		> 100		> 100 µM		> 100		> 100 µM		> 100 µM		> 100		> 100 µM
Cc1ccc(/C=C(\NC(=O)c2ccccc2)c2nc3ccccc3[nH]2)cc1		36.7 µM		> 100 µM		> 100		> 100				> 100		> 100 µM		> 100 µM		> 100		> 100 µM
CC(=O)O[C@H]1CCN2C(=O)C=CC(OCc3ccccc3)C12 (stereo partly drawn)		> 100 µM		> 100 µM		> 100				> 100 µM		> 100		> 100 µM		> 100 µM		> 100		> 100 µM
COc1cc(CNCCN2C(=O)c3ccc4c5c(ccc(c35)C2=O)C(=O)N(CCNCc2cc(OC)c(OC)c(OC)c2)C4=O)cc(OC)c1OC							0.136	0.428	0.142	0.421 µM	0.174	0.548			0.717	1.4 µM			0.794	1.78 µM
CC(C)(C)C(=O)Nc1cccc2oc(-c3ccccc3)cc12				> 100 µM		> 100						> 100		> 100 µM		> 100 µM		> 100		> 100 µM
O=[N+]([O-])c1ccc(C(Cl)C(Cl)c2ccc(C(Cl)C(Cl)c3ccc([N+](=O)[O-])cc3[N+](=O)[O-])cc2)c([N+](=O)[O-])c1 (stereo not drawn)	0.172	1.86 µM and 0.335 µM	0.313	4.57 µM and 1.08 µM		0.812		1.75	0.403	5.96 µM and 1.72 µM			0.389	12.3 µM and 1.96 µM	0.243	1.77 µM and 0.681 µM	0.244		0.216	4.69 µM and 0.582 µM

Reference: PubChem BioAssay (NCI)
